In the NIST ThermoML archive (doi:10.1021/je060271a):

Conditions: 303.15 K, Liquid, Vibrating tube method

CCCCCCCC(=O)OCC(COC(=O)CCCCCCC)(COC(=O)CCCCCCC)COC(=O)CCCCCCC [pentaerythritol tetraoctanoate]
Conditions	mass density [kg/m3]
22855 kPa	969
22884 kPa	969
22910 kPa	968.9
22944 kPa	968.9
22976 kPa	969
23001 kPa	969
23032 kPa	968.9
23066 kPa	969.2
23092 kPa	969
23125 kPa	969.1
23153 kPa	968.9
23185 kPa	969.2
23220 kPa	969.1
23246 kPa	969.2
23276 kPa	969.1
23312 kPa	969.2
23339 kPa	969.2
23371 kPa	969.2
23405 kPa	969.2
23434 kPa	969.3
23465 kPa	969.3
23500 kPa	969.2
23527 kPa	969.3
23561 kPa	969.3
23590 kPa	969.3
23626 kPa	969.4
23656 kPa	969.3
23690 kPa	969.4
23721 kPa	969.3
23753 kPa	969.5
23781 kPa	969.4
23817 kPa	969.5
23853 kPa	969.5
23880 kPa	969.5
23917 kPa	969.4
23950 kPa	969.5
23980 kPa	969.6
24016 kPa	969.5
24045 kPa	969.7
24080 kPa	969.5
24110 kPa	969.7
24146 kPa	969.6
24184 kPa	969.6
24212 kPa	969.6
24254 kPa	969.8
24280 kPa	969.7
24317 kPa	969.7
24348 kPa	969.8
24384 kPa	969.8
24420 kPa	969.7
24450 kPa	969.8
24488 kPa	969.9
24520 kPa	969.9
24557 kPa	969.8
24589 kPa	969.8
24627 kPa	969.8
24658 kPa	969.9
24697 kPa	969.9
24728 kPa	969.8
24766 kPa	970
24804 kPa	969.9
24836 kPa	969.9
24874 kPa	970.1
24906 kPa	970.1
24945 kPa	970.2
24978 kPa	970.1
25016 kPa	970.1
25048 kPa	970.2
25087 kPa	970.1
25126 kPa	970.1
25159 kPa	970.1
25199 kPa	970.2
25232 kPa	970.1
25272 kPa	970.2
25310 kPa	970.3
25343 kPa	970.2
25382 kPa	970.2
25416 kPa	970.2
25457 kPa	970.3
25491 kPa	970.4
25532 kPa	970.3
25575 kPa	970.3
25611 kPa	970.5
25653 kPa	970.3
25689 kPa	970.7
25726 kPa	970.3
25768 kPa	970.5
25804 kPa	970.5
25845 kPa	970.5
25882 kPa	970.6
25929 kPa	970.6
25969 kPa	970.5
26006 kPa	970.5
26051 kPa	970.7
26084 kPa	970.7
26119 kPa	970.7
26164 kPa	970.7
26203 kPa	970.7
26241 kPa	970.8
26285 kPa	970.8
26318 kPa	970.7
26384 kPa	970.8
26413 kPa	970.8
26446 kPa	970.8
26474 kPa	970.9
26520 kPa	970.9
26558 kPa	971
26597 kPa	971
26642 kPa	970.9
26681 kPa	971.1
26720 kPa	971
26767 kPa	971.1
26806 kPa	971.1
26846 kPa	971.1
26893 kPa	971.1
26934 kPa	971.2
26974 kPa	971
27015 kPa	971.2
27064 kPa	971.2
27104 kPa	971.2
27153 kPa	971.2
27193 kPa	971.2
27234 kPa	971.3
27275 kPa	971.4
27317 kPa	971.3
27366 kPa	971.3
27407 kPa	971.4
27450 kPa	971.4
27500 kPa	971.4
27543 kPa	971.4
27585 kPa	971.6
27636 kPa	971.4
27678 kPa	971.4
27720 kPa	971.6
27763 kPa	971.5
27814 kPa	971.6
27856 kPa	971.5
27907 kPa	971.5
27950 kPa	971.7
27993 kPa	971.7
28045 kPa	971.7
28089 kPa	971.7
28134 kPa	971.8
28178 kPa	971.9
28230 kPa	971.9
28273 kPa	971.8
28325 kPa	972
28369 kPa	971.9
